In paper PMC10215143, “D- and N-Methyl Amino Acids for Modulating the Therapeutic Properties of Antimicrobial Peptides and Lipopeptides” (Antibiotics, 2023):
In brackets after ≈: the same amount, converted by molar mass. Several values for one entry are separate records, joined by “and”; a condition that tells them apart may be missing. Equal values may be shown once. Read-outs that look alike come from different tables or passages of the source. Where a SMILES comes first, the peptide text is derived from it. [ ]: non-standard residue; d: D form. The star is where a group is joined. NMeF = CN[C@@H](Cc1ccccc1)C(=O)O; NMeK = CN[C@@H](CCCCN)C(=O)O; Decanoyl = CCCCCCCCCC(=O)*

Key:
S. aureus ATCC 25923 = format: cell-based, Staphylococcus aureus; conditions: ATCC 25923, 24 h
Description: (§1) The test was conducted in triplicate.

[1] = Critical micelle concentration by conductimetry in Milli-Q water; format: physicochemical; conditions: 25 °C
Description: On the other hand, acylation confers that the peptide has capacity to self-assemble into nanostructures, resulting in a surfactant-like structure, which may affect the extent of peptide insertion and disruption of bacterial membrane integrity. In this work, the CMC of the lipopeptides was determined by conductimetry in Milli-Q water. All the lipopeptides adopted a micellar assembly with CMC values ranging from 2.0 to 5.7 mM (Table 1). […] This effect appeared to be more important when substitution by an N-methyl amino acid was performed on amino acids located on the non-polar face of the amphipathic helix (CMC values of C10:0-A2(8-NMePhe) = 2.01 mM). For all the lipopeptides, the CMC values remained above the MIC values, which could indicate that these molecules interact with the cell membrane as monomers and, consequently, that this property would not be necessary for antimicrobial activity. This notion is in concordance with reports in the literature on short cationic lipopeptides.
A lipopeptide solution was prepared in Milli Q water, and the specific conductivity of each lipopeptide solution, in a concentration ranging from 0.06 to 18 mg/mL, was measured using a drop conductivity meter (HORIBA, Kyoto, Japan), at 25 °C. Conductivity values were plotted vs. lipopeptide concentration (mS × cm^−1 vs. mg/mL), and the CMC was graphically determined.

C. tropicalis DBFIQ 3 = format: cell-based, Candida tropicalis; conditions: DBFIQ 3, 24 h
Description: (§2) Each inoculum was taken and the cellular concentration was adjusted to 2 × 10^3 CFU/mL in Sabouraud Dextrose Broth (SDB) (Biokar Diagnostics, Cedex, France). Next, 50 µL of these inocula was added to 50 µL of peptide solution in serial 2-fold dilutions. […] […] The test was conducted in triplicate.

[2] = tested on: S. aureus RM * SA1 (Methicillin-resistant Staphylococcus aureus); conditions: S. aureus RM * SA1 (MRSA)
Yeast = conditions: for MIC Average Yeast: 24 h; for TI Yeast, HC50/MIC average: first value of the cell, a single value holds for HC50 and IC50 (400 µM used); for TI Yeast, IC50/MIC average: second value of the cell, HeLa IC50 based
Description: Each inoculum was taken and the cellular concentration was adjusted to 2 × 10^3 CFU/mL in Sabouraud Dextrose Broth (SDB) (Biokar Diagnostics, Cedex, France). Next, 50 µL of these inocula was added to 50 µL of peptide solution in serial 2-fold dilutions. […] The MIC was considered the lowest peptide concentration that inhibited visible growth of each yeast strain. The test was conducted in triplicate.
(§3) The TI is defined as the relationship between the concentration that caused 50% of hemolysis (HC50) or a 50% reduction in HeLa cell viability and the MIC. Thus, higher TI values indicate greater antimicrobial specificity. […] The average MIC for each peptide against different microorganism groups was used to calculate the TI value.

P. aeruginosa ATCC 27853 = format: cell-based, Pseudomonas aeruginosa; conditions: ATCC 27853, 24 h
Description: as §1

Gram (−) bacteria = conditions: for MIC Average Bacteria Gram (−): average over Gram (−) strains; for TI Bacteria Gram (−), HC50/MIC average: first value of the cell, a single value holds for HC50 and IC50 (400 µM used); for TI Bacteria Gram (−), IC50/MIC average: second value of the cell, HeLa IC50 based
Description: (§4) The MIC against bacterial strains was determined by the modified broth microtiter dilution method, following the procedures proposed by R.E.W. Hancock Laboratory for testing antimicrobial peptides. The target strains Escherichia coli ATCC 35218, Pseudomonas aeruginosa ATCC 27853, Enterococcus faecalis ATCC 29212, and Staphylococcus aureus ATCC 25923 belong to the American Type Culture Collection (ATCC). The Methicillin-Resistant Staphylococcus aureus BSF FBCB1313 strain (MRSA) was provided by the Clinical Bacteriology Section of FBCB-UNL. All strains were activated by culture for 24 h at 37 °C in Mueller-Hinton Broth (MHB) (Biokar Diagnostics, Cedex, France). Each inoculum was taken and adjusted to a cellular concentration of 5 × 10^5 colony-forming units (CFU)/mL in diluted MHB. All the peptides were dissolved in bovine serum albumin buffer with the addition of 0.01% acetic acid; 100 µL of each inoculum was added to 11 µL of peptide solution in serial 2-fold dilutions and were incubated for 18–24 h at 37 °C. The MIC was the lowest peptide concentration that inhibited visible growth of each bacterial strain. The test was conducted in triplicate.
as §3

Gram (+) bacteria = conditions: for MIC Average Bacteria Gram (+): average over Gram (+) strains; for TI Bacteria Gram (+), HC50/MIC average: first value of the cell, a single value holds for HC50 and IC50 (400 µM used); for TI Bacteria Gram (+), IC50/MIC average: second value of the cell, HeLa IC50 based
Description: as §4, §3

Human erythrocytes = test: Hemolysis assay; format: cell-based; conditions: human erythrocytes 0.4% (v/v), 37 °C, 60 min, 6.25 to 400 µM
Description: Hemolytic activity was determined using red blood cells and the hemoglobin released was measured at 405 nm. The percentage of hemolysis corresponding to the synthetic compounds is shown in Figure 1 while the HC50 values are provided in Table 3. […] Substitutions by N-methyl and D-amino acids reduced the hemolytic activity of the peptides and lipopeptides. […] For all the peptides and most of the lipopeptides, the HC50 values exceeded 400 μM. Indeed, the HC50 values were lower only for C10:0-A2(9-NMeLys) and C10:0-A2, which were around 300 and 200 μM, respectively.
Erythrocyte lysis was determined using the following previously optimized protocols. Human erythrocytes from a healthy voluntary donor were isolated by centrifugation (3000 rpm for 10 min) after washing three times with Physiological Solution (PS). Erythrocyte solutions were prepared at a concentration of 0.4% (v/v) in PS. Test tubes containing 200 µL of erythrocyte solution were incubated at 37 °C for 60 min with 200 µL of peptide solution at concentrations ranging from 6.25 to 400 µM. After centrifugation at 3000 rpm for 5 min, supernatant absorbance was measured at 405 nm. Lysis induced by 1% Triton X-100 was taken as a 100% reference value.

E. coli ATCC 35218 = format: cell-based, Escherichia coli; conditions: ATCC 35218, 24 h
Description: as §1

E. faecalis ATCC 29212 = format: cell-based, Enterococcus faecalis; conditions: ATCC 29212, 24 h
Description: as §1

C. albicans PEEC 2 = format: cell-based, Candida albicans; conditions: PEEC 2, 24 h
Description: as §2

HeLa cells = conditions: 24 h
Description: We assessed the cytotoxicity of the compounds synthesized using HeLa cells.
The 3–4,5-dimethylthiazol-2,5-biphenyl tetrazolium bromide (MTT) cell viability assay was used to assess the cytotoxic activity of synthetic compounds against the human HeLa line. HeLa cells were seeded in 96-well plates at 1 × 10^5 cells/well, in which the peptide solution was added at different concentrations (3.125–400 μM) for 24 h of incubation. Next, MTT reagent (Sigma-Aldrich, St. Louis, MO, USA) was added, and the cells were incubated for 2 h. Then, 100 μL of dimethylsulfoxide (DMSO) was added to each well to dissolve formazan crystals, and the plates were read at 595 nm.

Row | SMILES | MIC (S. aureus ATCC 25923) [µM] | CMC [1] [mM] | MIC (C. tropicalis DBFIQ 3) [µM] | MIC [2] [µM] | MIC Average Yeast (Yeast) [µM] | TI Yeast, HC50/MIC average (Yeast) | MIC (P. aeruginosa ATCC 27853) [µM] | MIC Average Bacteria Gram (−) (Gram (−) bacteria) [µM] | TI Bacteria Gram (−), HC50/MIC average (Gram (−) bacteria) | MIC Average Bacteria Gram (+) (Gram (+) bacteria) [µM] | TI Bacteria Gram (+), HC50/MIC average (Gram (+) bacteria) | HC50 ± SD (Human erythrocytes) [µM] | MIC (E. coli ATCC 35218) [µM] | MIC (E. faecalis ATCC 29212) [µM] | MIC (C. albicans PEEC 2) [µM] | IC50 (HeLa cells) [µM] | TI Yeast, IC50/MIC average (Yeast) | TI Bacteria Gram (−), IC50/MIC average (Gram (−) bacteria) | TI Bacteria Gram (+), IC50/MIC average (Gram (+) bacteria) | IC50 (HeLa cells; read-out: IC50 ± SD, HeLa cells, MTT, 3.125–400 μM)
1 | CCCCCCCCCC(=O)N[C@H](C(=O)N[C@@H](CCCCN)C(=O)N[C@@H](CCC(N)=O)C(=O)N[C@H](C(=O)N(C)[C@@H](CCCCN)C(=O)N[C@@H](CCCCN)C(=O)N[C@@H](CC(C)C)C(=O)N[C@@H](Cc1ccccc1)C(=O)N[C@@H](CCCCN)C(=O)N[C@@H](CCCCN)C(N)=O)C(C)C)[C@@H](C)CC [C10:0-A2(5-NMeLys), C10:0-IKQV(NMe-K)KLFKK-NH2] (Decanoyl-IKQV[NMeK]KLFKK-NH2) | 2.8 (≈ 4 µg/mL) | 3.73 | 179.5 (≈ 256 µg/mL) | 5.6 (≈ 7.99 µg/mL) | 179.5 (≈ 256 µg/mL) | 2.2 | 5.6 (≈ 7.99 µg/mL) | 4.2 (≈ 5.99 µg/mL) | 95.2 | 6.5 (≈ 9.28 µg/mL) | 61.5 | >400 | 2.8 (≈ 4 µg/mL) | 11.2 (≈ 16 µg/mL) | 179.5 (≈ 256 µg/mL) | > 400 | – | – | – | –
2 | CCCCCCCCCC(=O)N[C@H](C(=O)N[C@@H](CCCCN)C(=O)N[C@@H](CCC(N)=O)C(=O)N[C@H](C(=O)N[C@@H](CCCCN)C(=O)N(C)[C@@H](CCCCN)C(=O)N[C@@H](CC(C)C)C(=O)N[C@@H](Cc1ccccc1)C(=O)N[C@@H](CCCCN)C(=O)N[C@@H](CCCCN)C(N)=O)C(C)C)[C@@H](C)CC [C10:0-A2(6-NMeLys), C10:0-IKQVK(NMe-K)LFKK-NH2] (Decanoyl-IKQVK[NMeK]LFKK-NH2) | 1.4 (≈ 2 µg/mL) | 3.63 | 89.7 (≈ 128 µg/mL) | 5.6 (≈ 7.99 µg/mL) | 67.3 (≈ 96 µg/mL) | 5.9 | 0.7 (≈ 0.999 µg/mL) | 1.1 (≈ 1.57 µg/mL) | 363.6 | 4.2 (≈ 5.99 µg/mL) | 95.2 | >400 | 1.4 (≈ 2 µg/mL) | 5.6 (≈ 7.99 µg/mL) | 44.9 (≈ 64.1 µg/mL) | 400 ± 29 | – | – | – | –
3 | CCCCCCCCCC(=O)N[C@H](C(=O)N[C@@H](CCCCN)C(=O)N[C@@H](CCC(N)=O)C(=O)N[C@H](C(=O)N[C@@H](CCCCN)C(=O)N[C@@H](CCCCN)C(=O)N[C@@H](CC(C)C)C(=O)N[C@@H](Cc1ccccc1)C(=O)N(C)[C@@H](CCCCN)C(=O)N[C@@H](CCCCN)C(N)=O)C(C)C)[C@@H](C)CC [C10:0-A2(9-NMeLys), C10:0-IKQVKKLF(NMe-K)K-NH2] (Decanoyl-IKQVKKLF[NMeK]K-NH2) | 2.8 (≈ 4 µg/mL) | 3.90 | 179.5 (≈ 256 µg/mL) | 2.8 (≈ 4 µg/mL) | 134.6 (≈ 192 µg/mL) | 2.2 | 0.7 (≈ 0.999 µg/mL) | 1.8 (≈ 2.57 µg/mL) | 165.8 | 3.7 (≈ 5.28 µg/mL) | 80.7 | – | 2.8 (≈ 4 µg/mL) | 5.6 (≈ 7.99 µg/mL) | 89.7 (≈ 128 µg/mL) | > 400 | 3.0 | 222.2 | 108.1 | –
4 | CC(C)C[C@H](NC(=O)[C@H](CCCCN)NC(=O)[C@H](CCCCN)NC(=O)[C@H](Cc1ccccc1)N(C)C(=O)[C@H](CC(C)C)NC(=O)[C@H](CCCCN)NC(=O)[C@H](CCCCN)NC(=O)[C@H](Cc1ccccc1)N(C)C(=O)[C@H](CC(C)C)NC(=O)[C@@H](N)CCCCN)C(=O)N[C@@H](Cc1ccccc1)C(=O)N[C@@H](CCCCN)C(N)=O [TA4(3,7-NMePhe), KL(NMeF)KKL(NMeF)KKLFK-NH2] (H-KL[NMeF]KKL[NMeF]KKLFK-NH2; N-terminus assumed) | 5.0 (≈ 7.98 µg/mL) | – | 80.2 (≈ 128 µg/mL) | 10.0 (≈ 16 µg/mL) | 80.2 (≈ 128 µg/mL) | 5.0 | 1.2 (≈ 1.91 µg/mL) | 3.1 (≈ 4.94 µg/mL) | 129.0 | – | 14.1 | >400 | 5.0 (≈ 7.98 µg/mL) | 40.0 (≈ 63.8 µg/mL) | 80.2 (≈ 128 µg/mL) | 86.6 ± 7.35 | 1.1 | 27.9 | 3.1 | ~86 µM and 86 µM
